Test results: paper PMC4460250, “Systems Pharmacology Dissecting Holistic Medicine for Treatment of Complex Diseases: An Example Using Cardiocerebrovascular Diseases Treated by TCM” (Evidence-based Complementary and Alternative Medicine : eCAM, 2015)

Key:
[1] = in vivo
[2] = in vivo; cited from earlier work

| SMILES | Class(High: HIA value ≥0.7; Low: HIA value < 0.7) [1] | HIA(Human Intestinal Absorption) [2] |
| --- | --- | --- |
| C[C@@H](C(=O)O)c1ccc(-c2ccccc2)c(F)c1 [Flurbiprofen(R)] | High (key: High: HIA value ≥0.7; Low: HIA value < 0.7) | 0.95 |
| CC[C@@H](c1ccccc1)c1c(O)c2ccccc2oc1=O [Phenprocoumon(S)] | High (key: High: HIA value ≥0.7; Low: HIA value < 0.7) | 0.95 |
| COC(=O)C1=C(C)NC(C)=C(C(=O)OC(C)C)[C@H]1c1cccc2nonc12 [Isradipine(S)] | High (key: High: HIA value ≥0.7; Low: HIA value < 0.7) | 0.92 |
| CN(C)C(=O)O[C@@H]1N=C(c2ccccc2)c2cc(Cl)ccc2N(C)C1=O [Camazepam(S)] | High (key: High: HIA value ≥0.7; Low: HIA value < 0.7) | 1 |
| CO[C@@]1(NC(=O)C(C(=O)O)c2ccc(O)cc2)C(=O)N2C(C(=O)O)=C(CSc3nnnn3C)CO[C@@H]21 (stereo partly drawn) [Moxalactam(R)] | Low (key: High: HIA value ≥0.7; Low: HIA value < 0.7) | 0.01 |
| Cc1cccc(C)c1NC(=O)[C@@H](C)N [Tocainide(R)] | High (key: High: HIA value ≥0.7; Low: HIA value < 0.7) | 1 |
| O=C(O)CCCc1ccc(N(CCCl)CCCl)cc1 [Chlorambucil] | High (key: High: HIA value ≥0.7; Low: HIA value < 0.7) | 1 |
| CCN(CC)CC[C@@]1(c2ccccc2)CCC(=O)NC1=O [Phenglutarimide(R)] | High (key: High: HIA value ≥0.7; Low: HIA value < 0.7) | 1 |
| CN1C(=O)CC(=O)N(c2ccccc2)c2cc(Cl)ccc21 [Clobazam] | High (key: High: HIA value ≥0.7; Low: HIA value < 0.7) | 0.87 |
| CCCCC(=O)N(Cc1ccc(-c2ccccc2-c2nnn[nH]2)cc1)[C@H](C(=O)O)C(C)C [Valsartan(S)] | Low (key: High: HIA value ≥0.7; Low: HIA value < 0.7) | 0.55 |
| CN(C)CC[C@H](c1ccccc1)c1ccccn1 [Pheniramine(R)] | High (key: High: HIA value ≥0.7; Low: HIA value < 0.7) | 0.99 |
| C[C@@H](C(=O)O)c1cccc(Oc2ccccc2)c1 [Fenoprofen(R)] | High (key: High: HIA value ≥0.7; Low: HIA value < 0.7) | 0.85 |
| COc1ccc2c3c1O[C@H]1[C@@H](O)CC[C@H]4[C@@H](C2)N(C)CC[C@@]341 [Dihydrocodeine] | High (key: High: HIA value ≥0.7; Low: HIA value < 0.7) | 0.88 |
| CN1CCN(C(=O)O[C@H]2c3nccnc3C(=O)N2c2ccc(Cl)cn2)CC1 [Zopiclone(S)] | High (key: High: HIA value ≥0.7; Low: HIA value < 0.7) | 0.98 |
| CC(C)C[C@@H](N(C)C)C1(c2ccc(Cl)cc2)CCC1 [Sibutramine(R)] | High (key: High: HIA value ≥0.7; Low: HIA value < 0.7) | 0.77 |
| CN1C(=O)[C@H](O)N=C(c2ccccc2Cl)c2cc(Cl)ccc21 [Lormetazepam(S)] | High (key: High: HIA value ≥0.7; Low: HIA value < 0.7) | 1 |
| O=C1CN=C(c2ccccc2)c2cc(Cl)ccc2N1 [Nordazepam] | High (key: High: HIA value ≥0.7; Low: HIA value < 0.7) | – |
| C[C@]12C=CC(=O)C=C1CC[C@@H]1[C@@H]2[C@@H](O)C[C@@]2(C)[C@H]1CC[C@]2(O)C(=O)CO [Prednisolone] | High (key: High: HIA value ≥0.7; Low: HIA value < 0.7) | – |
| Cc1cc(NS(=O)(=O)c2ccc(N)cc2)no1 [Sulfamethoxazole] | High (key: High: HIA value ≥0.7; Low: HIA value < 0.7) | – |
| ClC(Cl)Cl [Chloroform] | High (key: High: HIA value ≥0.7; Low: HIA value < 0.7) | – |

| SMILES | Class(High: HIA value ≥0.7; Low: HIA value < 0.7) [1] | HIA(Human Intestinal Absorption) [2] |
| --- | --- | --- |
| CCN(CC)CCOC(=O)C(Cc1cccc2ccccc12)CC1CCCO1 (stereo not shown) [Nafronyl] | High (key: High: HIA value ≥0.7; Low: HIA value < 0.7) | – |
| CCCc1cc(=O)[nH]c(=S)[nH]1 [Propylthiouracil] | High (key: High: HIA value ≥0.7; Low: HIA value < 0.7) | – |
| O=C(O)Cc1ccccc1Nc1c(Cl)cccc1Cl [Diclofenac] | High (key: High: HIA value ≥0.7; Low: HIA value < 0.7) | – |
| CN1CC[C@]23c4c5ccc(O)c4O[C@H]2[C@@H](O)C=C[C@H]3[C@H]1C5 [Morphine] | High (key: High: HIA value ≥0.7; Low: HIA value < 0.7) | – |
| Cc1cnc(C(=O)NCCc2ccc(S(=O)(=O)NC(=O)NC3CCCCC3)cc2)cn1 [Glipizide] | High (key: High: HIA value ≥0.7; Low: HIA value < 0.7) | – |
| CN1C(=O)[C@H](O)N=C(c2ccccc2)c2cc(Cl)ccc21 [Temazepam(S)] | High (key: High: HIA value ≥0.7; Low: HIA value < 0.7) | – |
| NS(=O)(=O)c1cc2c(cc1Cl)NCNS2(=O)=O [Hydrochlorothiazide] | Low (key: High: HIA value ≥0.7; Low: HIA value < 0.7) | – |
| CCOc1ccc2c3c1O[C@H]1[C@@H](O)C=C[C@H]4[C@@H](C2)N(C)CC[C@@]341 [Ethylmorphine] | High (key: High: HIA value ≥0.7; Low: HIA value < 0.7) | – |
| C#C[C@]1(O)CC[C@H]2[C@@H]3CCC4=CC(=O)CC[C@@H]4[C@H]3CC[C@@]21CC [Levonorgestrel] | High (key: High: HIA value ≥0.7; Low: HIA value < 0.7) | – |
| O=C1Nc2ccc(Cl)cc2C(c2ccccc2)=N[C@@H]1O [Oxazepam(R)] | High (key: High: HIA value ≥0.7; Low: HIA value < 0.7) | – |
| O=C1Nc2ccc(Cl)cc2C(c2ccccc2)=N[C@H]1O [Oxazepam(S)] | High (key: High: HIA value ≥0.7; Low: HIA value < 0.7) | – |
| CCN(CC)CCNC(=O)c1cc(Cl)c(N)cc1OC [Metoclopramide] | High (key: High: HIA value ≥0.7; Low: HIA value < 0.7) | – |
| Cc1nnc2n1-c1ccc(Cl)cc1C(c1ccccc1Cl)=NC2 [Triazolam] | High (key: High: HIA value ≥0.7; Low: HIA value < 0.7) | – |
| O=C(O)c1ccccc1O [Salicylic acid] | High (key: High: HIA value ≥0.7; Low: HIA value < 0.7) | – |
| CN1C(=O)CN=C(c2ccccc2)c2cc(Cl)ccc21 [Diazepam] | High (key: High: HIA value ≥0.7; Low: HIA value < 0.7) | – |
| CC(C)NC[C@@H](O)COc1ccc(COCCOC(C)C)cc1 [Bisoprolol(R)] | High (key: High: HIA value ≥0.7; Low: HIA value < 0.7) | – |
| CN1C(=O)[C@@H](O)N=C(c2ccccc2)c2cc(Cl)ccc21 [Temazepam(R)] | High (key: High: HIA value ≥0.7; Low: HIA value < 0.7) | – |
| CC(C)NC[C@H](O)COc1ccc(COCCOC(C)C)cc1 [Bisoprolol(S)] | High (key: High: HIA value ≥0.7; Low: HIA value < 0.7) | – |
| C#CC1(O)CC[C@H]2[C@@H]3CCC4=CC(=O)CC[C@@H]4[C@H]3CC[C@@]21CC (stereo partly shown) [Norgestrel] | High (key: High: HIA value ≥0.7; Low: HIA value < 0.7) | – |
| Nc1cc(N2CCCCC2)nc(N)[n+]1[O-] [Minoxidil] | High (key: High: HIA value ≥0.7; Low: HIA value < 0.7) | – |

| SMILES | Class(High: HIA value ≥0.7; Low: HIA value < 0.7) [1] | HIA(Human Intestinal Absorption) [2] |
| --- | --- | --- |
| CN(C)[C@@H]1C(O)=C(C(N)=O)C(=O)[C@@]2(O)C(O)=C3C(=O)c4c(O)cccc4[C@@](C)(O)[C@H]3[C@H](O)[C@@H]12 [Oxytetracycline] | – | 0.58 |
| C=CCNc1nc(NCC=C)nc(N2CCN(C(c3ccc(F)cc3)c3ccc(F)cc3)CC2)n1 [Almitrine] | – | 0.9 |
| CCOC(=O)n1ccn(C)c1=S [Carbimazole] | – | 0.95 |
| CC(=O)Nc1ccc(O)cc1 [Paracetamol] | – | 0.8 |
| COc1ccc(CCN2CCC(Nc3nc4ccccc4n3Cc3ccc(F)cc3)CC2)cc1 [Astemizole] | – | 1 |
| CC(=O)c1ccc(S(=O)(=O)NC(=O)NC2CCCCC2)cc1 [Acetohexamide] | – | 0.8 |
| NNC(=O)c1ccncc1 [Isoniazid] | – | 0.8 |
| CNCCC=C1c2ccccc2CCc2ccccc21 [Nortriptyline] | – | 1 |
| CNC(=C[N+](=O)[O-])NCCSCc1csc(CN(C)C)n1 [Nizatidine] | – | 0.9 |
| CN(C)CCc1c[nH]c2ccc(Cn3cncn3)cc12 [Rizatriptan] | – | 0.9 |
| CC#Cc1cn([C@@H]2O[C@H](CO)[C@@H](O)[C@@H]2O)c(=O)[nH]c1=O [Netivudine] | – | 0.28 |
| N#Cc1ccc(C(c2ccc(C#N)cc2)n2cncn2)cc1 [Letrozole] | – | 1 |
| O=c1[nH]c(=O)n([C@@H]2O[C@H](CO)[C@@H](O)[C@@H]2O)cc1/C=C/Br [Sorivudine] | – | 0.82 |
| O=C1NC(=O)C(c2ccccc2)(c2ccccc2)N1 [Phenytoin] | – | 0.9 |
| CC1=C(/C=C/C(C)=C/C=C/C(C)=C\C(=O)O)C(C)(C)CCC1 [Isotretinoin] | – | 0.9 |
| NS(=O)(=O)c1cc2c(cc1C(F)(F)F)NC(Cc1ccccc1)NS2(=O)=O (stereo not shown) [Bendroflumethiazide] | – | 1 |
| O=C(O)c1cc(/N=N/c2ccc(O)c(C(=O)O)c2)ccc1O [Olsalazine] | – | 0.24 |
| O=NN(CCCl)C(=O)NCCCl [Carmustine] | – | 1 |
| CCCCCOC(=O)Nc1nc(=O)n([C@@H]2O[C@H](C)[C@@H](O)[C@H]2O)cc1F [Capecitabine] | – | 0.96 |
| NC[C@H]1O[C@H](O[C@H]2[C@H](O)[C@@H](O[C@H]3O[C@H](CO)[C@@H](O)[C@H](N)[C@H]3O)[C@H](N)C[C@@H]2N)[C@H](N)C[C@@H]1O [Tobramycin] | – | 0.01 |
